Reference: patent US11825868B2, “Sweetener composition” (Hapy Sweet Bee Ltd, priority 2019, dated 2023)
In brackets after ≈: the same amount, converted by molar mass.

What was measured:
[1] = on the palate; reb-M used alone or substantially alone, compared to established rebaudioside sweeteners including reb-A; cited from earlier work
[2] = relative to sucrose, baseline 1.0; cited from earlier work
microbial growth = conditions: cited from earlier work
[3] = Solubility and retention of reb-M in 1,3-propanediol after heating and cooling; type: physicochemical
Experimental: The solvent or liquid base for the sweetener composition may comprise 1,3-propanediol and optionally one or more additional solvents. […] (175° F.) and cooled to room temperature. […] (36° F.).

[4] = room temperature; cited from earlier work

## C=C1C[C@@]23CC[C@H]4[C@@](C)(CCC[C@@]4(C)C(=O)O[C@@H]4O[C@H](CO)[C@@H](O)[C@H](O)[C@H]4O)[C@@H]2CC[C@]1(O[C@@H]1O[C@H](CO)[C@@H](O)[C@H](O[C@@H]2O[C@H](CO)[C@@H](O)[C@H](O)[C@H]2O)[C@H]1O[C@@H]1O[C@H](CO)[C@@H](O)[C@H](O)[C@H]1O)C3 [reb-A, Rebaudioside A]
[1]
  bitter aftertaste: bitter aftertaste

## O=C(CO)[C@@H](O)[C@H](O)[C@H](O)CO [fructose]
[2]
  sweetness index: approximately 1.7

## OC[C@H]1O[C@@](CO)(O[C@H]2O[C@H](CO)[C@@H](O)[C@H](O)[C@H]2O)[C@@H](O)[C@@H]1O [sucrose]
[2]
  sweetness index: 1.0

## 1,3-propanediol
Microbial growth
  minimum inhibitory concentration (MIC) compared with other solvents such as glycerin: lower

## C=C1C[C@@]23CC[C@H]4[C@@](C)(CCC[C@@]4(C)C(=O)O[C@@H]4O[C@H](CO)[C@@H](O)[C@H](O[C@@H]5O[C@H](CO)[C@@H](O)[C@H](O)[C@H]5O)[C@H]4O[C@@H]4O[C@H](CO)[C@@H](O)[C@H](O)[C@H]4O)[C@@H]2CC[C@]1(O[C@@H]1O[C@H](CO)[C@@H](O)[C@H](O[C@@H]2O[C@H](CO)[C@@H](O)[C@H](O)[C@H]2O)[C@H]1O[C@@H]1O[C@H](CO)[C@@H](O)[C@H](O)[C@H]1O)C3 [reb-M, rebaudioside-M]
[3]; 1,3-propanediol, organic solvent or mixture, thermodynamic from solid, solvent heated in excess of 80° C. (175° F.) and cooled to room temperature
  solubility: ~795 mg/mL (≈ 616 mM)
[3]; heated 1,3-propanediol solution cooled back to room temperature
  retention in solution on cooling: retained in the solution
[3]; heated 1,3-propanediol solution cooled to approximately 2° C. (36° F.)
  retention in solution on cooling: retained in solution
[1]
  bitter aftertaste: reduced bitterness of aftertaste
[4]
  solubility in water: up to 0.1 g per 100 ml water
